Measurements from paper PMC3626661, “Functional Specificity of Sex Pheromone Receptors in the Cotton Bollworm Helicoverpa armigera” (PLoS ONE, 2013).

How the values were obtained:
Experiment in all cases: two-electrode voltage clamp in Xenopus oocytes, dose-response
Type in all cases: cell-based
[1] = target: T1, HarmOR16 (Helicoverpa armigera, UniProt C6K7B8)
T1 construct: full-length ORF; with HarmOrco (HarmOR2)
T1 sequence (C6K7B8 1-422): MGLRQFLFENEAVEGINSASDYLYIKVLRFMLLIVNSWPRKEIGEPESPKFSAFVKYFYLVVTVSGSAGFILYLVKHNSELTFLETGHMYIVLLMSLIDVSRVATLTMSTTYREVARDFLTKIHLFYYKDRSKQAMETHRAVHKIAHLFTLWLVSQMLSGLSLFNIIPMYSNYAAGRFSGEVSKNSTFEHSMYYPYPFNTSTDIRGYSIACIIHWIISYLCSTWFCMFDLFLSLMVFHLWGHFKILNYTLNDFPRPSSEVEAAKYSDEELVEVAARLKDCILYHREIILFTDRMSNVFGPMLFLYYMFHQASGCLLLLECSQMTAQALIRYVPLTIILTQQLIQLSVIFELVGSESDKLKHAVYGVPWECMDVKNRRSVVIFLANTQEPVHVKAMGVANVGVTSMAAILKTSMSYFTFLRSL
T1 sequence (A0A075TD45 1-473 partner): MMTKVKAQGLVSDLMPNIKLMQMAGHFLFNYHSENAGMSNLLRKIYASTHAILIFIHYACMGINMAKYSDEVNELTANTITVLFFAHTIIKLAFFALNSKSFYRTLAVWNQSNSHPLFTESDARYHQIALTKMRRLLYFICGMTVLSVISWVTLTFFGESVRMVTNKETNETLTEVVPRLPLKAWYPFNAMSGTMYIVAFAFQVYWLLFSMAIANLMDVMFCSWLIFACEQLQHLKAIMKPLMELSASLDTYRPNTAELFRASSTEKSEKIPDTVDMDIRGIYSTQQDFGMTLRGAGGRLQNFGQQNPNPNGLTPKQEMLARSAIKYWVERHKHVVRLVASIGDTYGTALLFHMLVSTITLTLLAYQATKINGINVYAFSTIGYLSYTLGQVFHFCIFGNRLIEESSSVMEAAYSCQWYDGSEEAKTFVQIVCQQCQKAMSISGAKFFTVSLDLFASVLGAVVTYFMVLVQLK
Source text: two-electrode voltage clamp in Xenopus oocytes, dose-response on HarmOR16 | Dose–response curve of HarmOR16/HarmOR2 Xenopus oocytes to Z11-16:OH.

[2] = target: T2, HarmOR6 (Helicoverpa armigera, UniProt R4JSE3)
T2 construct: gene OR6; full-length ORF; with HarmOrco (HarmOR2)
T2 sequence (R4JSE3 1-425): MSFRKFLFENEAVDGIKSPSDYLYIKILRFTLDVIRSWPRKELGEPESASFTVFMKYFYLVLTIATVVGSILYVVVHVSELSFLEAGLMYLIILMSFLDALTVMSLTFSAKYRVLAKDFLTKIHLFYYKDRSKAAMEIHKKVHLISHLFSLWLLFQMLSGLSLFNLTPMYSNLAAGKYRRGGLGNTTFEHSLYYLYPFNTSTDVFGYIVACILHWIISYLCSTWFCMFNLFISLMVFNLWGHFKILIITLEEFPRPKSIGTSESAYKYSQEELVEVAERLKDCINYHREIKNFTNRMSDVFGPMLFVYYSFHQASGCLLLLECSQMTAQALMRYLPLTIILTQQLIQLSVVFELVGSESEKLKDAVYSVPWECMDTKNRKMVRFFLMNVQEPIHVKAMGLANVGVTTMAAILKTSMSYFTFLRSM
T2 sequence (A0A075TD45 1-473 partner): T1 sequence (A0A075TD45 1-473 partner)
Source text: two-electrode voltage clamp in Xenopus oocytes, dose-response on HarmOR6 | Dose–response curve of HarmOR6/HarmOR2 Xenopus oocytes to Z9-16:Ald. | Dose–response curve of HarmOR6/HarmOR2 Xenopus oocytes to Z9-14:Ald.

[3] = target: T3, HarmOR13 (Helicoverpa armigera, UniProt A0A075TD52)
T3 construct: gene OR13; full-length ORF; with HarmOrco (HarmOR2)
T3 sequence (A0A075TD52 1-425): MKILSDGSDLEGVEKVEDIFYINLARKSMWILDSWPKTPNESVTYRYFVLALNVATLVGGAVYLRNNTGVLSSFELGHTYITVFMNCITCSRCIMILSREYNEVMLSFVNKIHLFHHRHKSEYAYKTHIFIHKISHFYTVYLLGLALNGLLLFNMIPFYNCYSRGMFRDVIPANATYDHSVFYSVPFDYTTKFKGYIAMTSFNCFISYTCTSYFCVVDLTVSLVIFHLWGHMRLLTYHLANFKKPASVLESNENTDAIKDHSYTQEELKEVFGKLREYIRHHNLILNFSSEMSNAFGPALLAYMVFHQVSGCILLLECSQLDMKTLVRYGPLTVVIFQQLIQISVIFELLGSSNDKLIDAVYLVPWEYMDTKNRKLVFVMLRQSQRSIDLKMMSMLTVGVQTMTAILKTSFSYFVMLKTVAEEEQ
T3 sequence (A0A075TD45 1-473 partner): T1 sequence (A0A075TD45 1-473 partner)

CCCC/C=C\CCCCCCCCCCO [Z11-16:OH, (Z)-11-hexadecen-1-ol] was tested. Which EC50 [1] did it give?
Its EC50 is 299 nM.

For CCCC/C=C\CCCCCCCC=O [Z9-14:Ald, (Z)-9-tetradecenal], which EC50 [2] is on record?
Its EC50 is 4340 nM.

CCCCCC/C=C\CCCCCCCC=O [Z9-16:Ald, (Z)-9-hexadecenal] was tested. Which EC50 [2] did it give?
Its EC50 is 3530 nM.

For CCCC/C=C\CCCCCCCCCC=O [Z11-16:Ald, (Z)-11-hexadecenal], which EC50 [3] is on record?
The EC50 was 1820 nM.
